Data: patent publication US11116778B2, “Prodrugs of ALOX-15 inhibitors and methods of using the same” (EMPIRICO INC., priority 2019, dated 2021)
≈ marks a conversion by molar mass, not a printed value. Read-outs that look alike come from different tables or passages of the source.

Legend:
[1] = Levels of compound 3 and compound 5 in rabbit nasal lavage and serum after nasal administration of compound 5; type: in vivo
Procedure: Six (6) female NZW rabbits were employed in this study. Rabbits were obtained from Covance (Denver Pa.). Rabbits were between approximately 10 and 12 months of age at the time of study start. At time point 0, all animals received 50 μL of solution containing rabbit IL4 (RND Systems/Biotechne) and human IL13 (PreproTech) at a concentration of 0.25 mg/mL each in 0.5×PBS containing 12.5 mg/mL BSA per nostril. This was administered intranasally via a venous catheter attached to a micropipette. The animal was positioned in a supine manner and the venous catheter inserted into the nostril. The volume was introduced into the nasal cavity and the same procedure was repeated with the other nostril.
At the 2, 4, and 6 hour time points, animals in Group 1 (n=3) received 0.2 mL of vehicle (0.9% saline) per nostril and the animals in Group 2 (n=3) received 0.2 mL of compound 5 (10 mM) in vehicle per nostril. The dosing of vehicle and compound 5 proceed as follows: The animal was positioned in a supine manner in a restraint bag and a mucosal atomization device (MAD) attached to the pre-filled tuberculin syringe was inserted into the nostril and introduced into the nasal cavity. The same procedure was repeated with the other nostril.
At the 8 hour time point, all the nostrils of all animals were lavaged with 1 mL of 0.9% saline per nostril and the resulting fluid collected. Intranasal lavages were performed as follows: The animals were held sternally in a restraint bag with the head over the edge of the table and the rear of the animal elevated higher than the head. A flexible venous catheter was inserted in the nostril until resistance was felt. The 1 mL of saline was introduced through the catheter into the nasal cavity. The nasal lavage returned from the nostril was collected via a funnel into a conical tube and the approximate volume recorded. This procedure was repeated for the other nostril. The lavage was stored at approximately −70° C. until analysis. Following (<10 minutes) the 8 hour time point lavage, blood was collected from all animals, processed to serum, and frozen at approximately −70° C. until analysis.
Nasal lavage and serum samples were analyzed for the levels of compound 3 and compound 5. Frozen tissue samples were weighed (20-120 mg) and placed into 2 mL CK14 homogenizing tubes (Bertin) and 500 μL of methanol containing 1 mM butylated hydroxy toluene (BHT) and 1 mM tris(2-carboxyethyl)phosphine (TCEP) was added. The tubes were placed in a Precellys 24 tissue homogenizer (Bertin) and run at 6000 rpm six times for 20 seconds with a 10 second pause between cycles. The tubes containing the homogenized tissue were then placed in a microfuge and centrifuged for 5′ at 14,000 rpm to pellet any insoluble material. Compound 3 was quantified using LC-MS/MS (QTrap5500, Applied Biosystems). Q1/Q3 Masses: 306.00/135.00 using a deschloro derivative of compound 3 (lacking chlorine at 4 position of pyrazole ring) as an internal standard. The Q1/Q3 Masses are 272.00/101.00 Da for the internal standard. Compound 3 was extracted using liquid/liquid extraction with methanol as a diluent. […] Compound 5 was quantified using LC-MS/MS (QTrap5500, Applied Biosystems). […] Compound 5 was detected in the lavage samples from Group 2 animals (rabbit 1, rabbit 2, rabbit 3) and ranged in average concentration from 0.016 uM-0.35 uM. […]

[2] = Solubility assessment in water; type: physicochemical; conditions: water; 0.4 μg/ml at molecular weight 308; read-out: solubility, concentration
Procedure: Water was added slowly to 4.7 mg of compound 5 until 4.7 ml of water was added at which point the phosphate fully dissolved. The pH of the solution was estimated using litmus paper and estimated to be <3. Without a counterion, the molecular weight of the phosphate is 418 m. Therefore, at 1 mg/ml, the concentration is 2.4 mM.
For comparison, compound 3 is soluble to 0.4 μg/ml (Han et al FASEB J. 2017 31(2):491-504), which at a molecular weight of 308 is 1.3 μM.
Compound 5 was suspended in water (at weight to give a final concentration of 10 mM) and then 2 eq NaHCO3 was added.

[3] = Han et al FASEB J. 2017; cited from earlier work

concentration at 8 h ([1]; female, NZW, rabbit, nasal lavage, other: intranasal (mucosal atomization device), rabbits dosed with compound 5, 0.2 mL of 10 mM per nostril at 2, 4, 6 hours, lavage at 8 hours, range over 3 rabbits, read-out: average concentration of compound 3 in nasal lavage (FIG. 8)): 890 to 3100 nM
level in serum samples ([1]; rabbits, intranasal compound 5 10 mM, blood after the 8 hour lavage): no quantifiable
solubility [2]: 1.3 µM (≈ 0.401 µg/mL)
SMILES: O=C(Nc1ccc(F)cc1Cl)c1n[nH]c(Cl)c1Cl [compound 3, 4,5-dichloro-N-(2-chloro-4-fluorophenyl)-1H-pyrazole-3-carboxamide]
solubility [3]: 0.4 µg/mL (≈ 1.3 µM)
